{
  "source": "paper PMC11649914",
  "about": "“Transport mechanism of DgoT, a bacterial homolog of SLC17 organic anion transporters” (The EMBO Journal, 2024)",
  "assay_in_all_cases": "SSM electrophysiology, kobs of pre-steady state current vs concentration",
  "format_in_all_cases": "biochemical",
  "key": {"[1]": {"molecular_target": "T1, DgoT (Escherichia coli, UniProt A0A0H2Z574)", "T1 sequence (A0A0H2Z574 1-445)": "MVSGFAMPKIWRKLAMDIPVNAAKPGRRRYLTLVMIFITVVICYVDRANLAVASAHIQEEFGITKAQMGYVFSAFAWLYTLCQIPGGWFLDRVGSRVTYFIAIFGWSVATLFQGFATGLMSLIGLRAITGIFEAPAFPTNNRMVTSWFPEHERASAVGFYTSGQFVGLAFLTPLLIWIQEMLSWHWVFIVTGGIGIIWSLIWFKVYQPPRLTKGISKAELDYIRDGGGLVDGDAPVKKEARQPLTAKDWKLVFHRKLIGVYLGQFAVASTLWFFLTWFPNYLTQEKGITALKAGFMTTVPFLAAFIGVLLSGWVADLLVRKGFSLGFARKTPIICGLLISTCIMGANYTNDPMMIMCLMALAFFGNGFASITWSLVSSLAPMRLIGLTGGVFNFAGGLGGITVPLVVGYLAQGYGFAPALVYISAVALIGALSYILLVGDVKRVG", "description": "(§1) SSM electrophysiology, kobs of pre-steady state current vs concentration on DgoT"}, "[2]": {"molecular_target": "T2, DgoT (Escherichia coli, UniProt A0A0H2Z574, D46N)", "T2 sequence (A0A0H2Z574 1-445 D46N)": "T1 sequence (A0A0H2Z574 1-445)", "description": "as §1"}, "[3]": {"molecular_target": "T3, DgoT (Escherichia coli, UniProt A0A0H2Z574, E133Q)", "T3 sequence (A0A0H2Z574 1-445 E133Q)": "T1 sequence (A0A0H2Z574 1-445)", "description": "as §1"}, "[4]": {"molecular_target": "T4, DgoT (Escherichia coli, UniProt A0A0H2Z574, R126Q)", "T4 sequence (A0A0H2Z574 1-445 R126Q)": "T1 sequence (A0A0H2Z574 1-445)", "description": "as §1"}},
  "note": "pKd: −log10 of the molar value.",
  "data": [
    {"smiles": "O=C(O)[C@H](O)[C@@H](O)[C@@H](O)[C@H](O)CO", "note": "[D-galactonate]", "values": [
      {"measurement": "pKd", "setting": "[1]", "result": 1.82},
      {"measurement": "pKd", "setting": "[2]", "result": 1.96},
      {"measurement": "pKd", "setting": "[3]", "result": 1.82},
      {"measurement": "pKd", "setting": "[4]", "result": 1.66}
    ]}
  ]
}
